These compounds were tested against human P2X3 receptor (Homo sapiens (Human), UniProt P56373) (assay: Evaluation of human P2X3 receptor inhibitory activity (Fluo-3 calcium fluorescence, FDSS 3000, ATP stimulation)). Conditions: C6BU-1 cells stably expressing human P2X3 receptor.
Format: cell-based
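Further: stimulus was 50 nM ATP with fluorescence followed for 3 min, and the response per well was peak post-ATP fluorescence divided by the reading at measurement start.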

Sequence of human P2X3 receptor (P56373 whole entry): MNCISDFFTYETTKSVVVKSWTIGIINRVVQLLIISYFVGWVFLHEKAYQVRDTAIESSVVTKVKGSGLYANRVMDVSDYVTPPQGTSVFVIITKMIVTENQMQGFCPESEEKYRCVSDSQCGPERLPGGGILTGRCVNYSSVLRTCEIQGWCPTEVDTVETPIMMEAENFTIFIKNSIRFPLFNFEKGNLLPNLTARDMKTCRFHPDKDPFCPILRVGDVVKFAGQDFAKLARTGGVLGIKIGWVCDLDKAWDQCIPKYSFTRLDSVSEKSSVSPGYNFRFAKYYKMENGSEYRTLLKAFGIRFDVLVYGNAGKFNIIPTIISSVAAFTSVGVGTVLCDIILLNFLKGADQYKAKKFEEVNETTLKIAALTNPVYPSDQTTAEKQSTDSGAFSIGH

Point of comparison: `Cc1ccc(Cn2c(=O)n(CCC(=O)O)c(=O)[nH]/c2=N\c2cc(C(F)(F)F)ccc2C)cc1` [Compound I-2082], IC50 0.833 µM. Against it:
- CNC(=O)Cn1c(=O)[nH]/c(=N\c2ccc(Oc3ccc(C)nc3)cc2)n(Cc2ccc(Cl)cc2)c1=O [Compound I-1945] — 100-fold lower, 0.008 µM
- Cc1nc2ccc(/N=c3\[nH]c(=O)n(CCC(=O)O)c(=O)n3CC3CCC(C)CC3)cc2s1 (stereo not shown) [Compound I-1994] — 83-fold lower, 0.01 µM
- COC(=O)[C@@H](C)Cn1c(=O)[nH]/c(=N\c2ccc(CC(C)C)c(Cl)c2)n(Cc2ccc(C)nc2)c1=O [Compound I-1464] — 12-fold lower, 0.07 µM
- COc1ccc(Cn2c(=O)[nH]/c(=N\c3ccc(OC(C)C)c(F)c3)n(Cc3ccc(Cl)cc3)c2=O)cn1 [Compound I-0641] — 32-fold lower, 0.026 µM
- Cc1cc(/N=c2\[nH]c(=O)n(C[C@H](C)C(=O)O)c(=O)n2Cc2ccc(Cl)cc2)ccc1OCC(F)F [Compound I-0741] — 17-fold lower, 0.05 µM
- Cc1ccc(Cn2c(=O)n(CCC(=O)O)c(=O)[nH]/c2=N\c2ccc(CC(C)C)c(Cl)c2)cc1 [Compound I-1427] — 100-fold lower, 0.008 µM
- Cc1cc(/N=c2\[nH]c(=O)n(Cc3cccc(C(=O)O)n3)c(=O)n2Cc2ccc(Cl)cc2)ccc1OC(C)C [Compound I-0801] — 83-fold lower, 0.01 µM
- COc1ccc2cc(/N=c3\[nH]c(=O)n(CCC(=O)O)c(=O)n3Cc3ccc(C)cc3)ccc2n1 [Compound I-2137] — 6.2-fold lower, 0.134 µM
- C[C@@H](Oc1ccc(/N=c2\[nH]c(=O)n(CC(=O)NCCO)c(=O)n2Cc2ccc(Cl)cc2)cc1)C(F)(F)F [Compound I-1999] — 30-fold lower, 0.028 µM
- Cc1cc(/N=c2\[nH]c(=O)n(Cc3ccc(C(=O)O)o3)c(=O)n2Cc2ccc(Cl)cc2)ccc1OC(C)C [Compound I-0710] — 44-fold lower, 0.019 µM
- COC(=O)c1cccc(Cn2c(=O)[nH]/c(=N\c3ccc(OC(C)C)c(C)c3)n(Cc3ccc(Cl)cc3)c2=O)n1 [Compound I-0781] — 93-fold lower, 0.009 µM
- Cc1ccc(Cn2c(=O)n(CC(C)(C)C(=O)O)c(=O)[nH]/c2=N\c2ccc(CC(C)C)c(Cl)c2)cc1 [Compound I-1462] — 280-fold lower, 0.003 µM
- CCn1c(=O)[nH]/c(=N\c2ccc(Oc3ccnc(C(=O)O)c3)cc2)n(CC2CCC3(CC2)CC3)c1=O [Compound I-2177] — 59-fold lower, 0.014 µM
- Cc1ccc(Cn2c(=O)n(CCC(=O)O)c(=O)[nH]/c2=N\c2cccc(C(F)(F)F)c2C)cc1 [Compound I-2085] — within 1.5-fold, 0.852 µM
- CCOc1ccc(/N=c2\[nH]c(=O)n(C[C@H](C)C(=O)OC)c(=O)n2Cc2ccc(C)cc2)cc1F [Compound I-0605] — 33-fold lower, 0.025 µM
- COC(=O)[C@H](Cn1c(=O)[nH]/c(=N\c2ccc(OC(C)C)c(C)c2)n(Cc2ccc(Cl)cc2)c1=O)OC [Compound I-0806, (S)-1-(4-chlorobenzyl)-6-(3-mehyl-4-isopropoxyphenylimino)-3-(2-methoxycarbonyl-2-methoxy-ethyl)-1,3,5-triazinane-2,4-dion] — 69-fold lower, 0.012 µM
- CCOC(=O)CCn1c(=O)[nH]/c(=N\c2ccc(Oc3cccc(F)c3)cc2)n(Cc2ccc(Cl)cc2)c1=O [Compound I-1937] — 38-fold lower, 0.022 µM

Same assay, conditions: C6BU-1 cells stably expressing human P2X3 receptor, Fluo-3 fluorescence, FDSS 3000

Point of comparison: `CSc1cccc(/N=c2\[nH]c(=O)n(C[C@H](C)C(=O)O)c(=O)n2Cc2ccc(C)cc2)c1` [Compound I-1154], IC50 0.131 µM. Against it:
- COC(=O)[C@@H](C)Cn1c(=O)[nH]/c(=N\c2ccc(C3CCCCC3)cc2)n(Cc2ccc(C)cc2)c1=O [Compound I-1087] — 1.8-fold lower, 0.071 µM
- O=C(O)C1(Cn2c(=O)[nH]/c(=N\c3ccc(OCC4CC4)cc3)n(Cc3ccc(Cl)cc3)c2=O)CC1 [Compound I-0934] — 2.3-fold lower, 0.057 µM
- CCOC(=O)CCn1c(=O)[nH]/c(=N\c2ccc(O[C@H](C)CC)c(C)c2)n(Cc2ccc(C)cc2)c1=O [Compound I-1019] — 19-fold lower, 0.007 µM
- Cc1ccc(Cn2c(=O)n(C[C@H](C)C(=O)O)c(=O)[nH]/c2=N\c2ccc(OCCC(C)C)cc2)cc1 [Compound I-1063] — within 1.5-fold, 0.152 µM
- CC(C)n1c(=O)nc(Nc2ccc3oc(=O)[nH]c3c2)n(Cc2ccc(Cl)cc2)c1=O [Compound I-0249] — 7.3-fold higher, 0.953 µM
- COc1ccc(Oc2ccc(/N=c3\[nH]c(=O)n(C[C@H](O)CO)c(=O)n3Cc3ccc(Cl)cc3)cc2)cn1 [Compound I-1734] — 26-fold lower, 0.005 µM
- CCc1nc2ccc(/N=c3\[nH]c(=O)n(CCCC(N)=O)c(=O)n3Cc3ccc(Cl)cc3)cc2s1 [Compound I-1711] — 26-fold lower, 0.005 µM
- Cc1cc(Oc2ccc(/N=c3\[nH]c(=O)n(CCCO)c(=O)n3Cc3ccc(Cl)cc3)cc2)ccn1 [Compound I-1599] — 26-fold lower, 0.005 µM
- COC(=O)[C@@H](C)Cn1c(=O)[nH]/c(=N\c2ccc(OC3CCCCC3)nc2)n(Cc2ccc(C)cc2)c1=O [Compound I-1184] — within 1.5-fold, 0.138 µM
- CCOC(=O)CCCn1c(=O)[nH]/c(=N\c2ccc3nc(CC)sc3c2)n(Cc2ccc(C)cc2)c1=O [Compound I-1629] — 33-fold lower, 0.004 µM
- CCc1nc2ccc(/N=c3\[nH]c(=O)n(CCC(=O)NC)c(=O)n3Cc3ccc(Cl)cc3)cc2s1 [Compound I-1738] — 26-fold lower, 0.005 µM
- CC[C@@H](C)Oc1ccc(/N=c2\[nH]c(=O)n(CCC(=O)O)c(=O)n2Cc2ccc(C)cc2)cc1C [Compound I-1029] — 3.7-fold lower, 0.035 µM
- COC(=O)[C@@H](C)Cn1c(=O)[nH]/c(=N\c2ccc(OC(C)C)c(C)c2)n(Cc2ccc(C(C)C)cc2)c1=O [Compound I-0997] — 5.2-fold higher, 0.68 µM

Same assay, conditions: human P2X3 receptor, Test Example 1

Point of comparison: `CCn1c(=O)[nH]/c(=N\c2ccc(Oc3cccc(C#N)n3)c(OC)c2)n(Cc2ccc(Cl)cc2)c1=O` [Compound I-2387], IC50 0.002 µM. Against it:
- Cc1cnc(Oc2ccc(/N=c3\[nH]c(=O)n(CC(CO)CO)c(=O)n3Cc3ccc(Cl)cc3)cc2)s1 [Compound I-2458] — 1.5-fold higher, 0.003 µM
- CCn1c(=O)[nH]/c(=N\c2ccc(Oc3ccc(C(=O)O)cc3)nc2)n(Cc2ccc(Cl)cc2)c1=O [Compound I-2621] — 130-fold higher, 0.265 µM
- COC(=O)CCn1c(=O)[nH]/c(=N\c2ccc(Oc3ncns3)cc2)n(Cc2ccc(Cl)cc2)c1=O [Compound I-2652] — 1.5-fold higher, 0.003 µM
- CNC(=O)c1cc(Oc2ccc(/N=c3\[nH]c(=O)n(C)c(=O)n3Cc3ccc(Cl)cc3)cc2F)ccn1 [Compound I-2433] — 2.5-fold higher, 0.005 µM
- CCCOc1ccc(/N=c2\[nH]c(=O)n(C[C@H](CC)C(=O)OC)c(=O)n2Cc2ccc(C)cc2)cc1 [Compound I-0883] — 12-fold higher, 0.024 µM
- CCn1c(=O)[nH]/c(=N\c2ccc([S+]([O-])c3ccc(C(=O)O)cc3)cc2)n(Cc2ccc(Cl)cc2)c1=O (stereo not shown) [Compound I-2631] — 240-fold higher, 0.475 µM
- COC(=O)c1cncc(Oc2ccc(/N=c3\[nH]c(=O)n(C4CC4)c(=O)n3Cc3ccc(Cl)cc3)cc2)c1 [Compound I-2308] — 1.5-fold higher, 0.003 µM
- COC(=O)[C@@H](C)Cn1c(=O)[nH]/c(=N\c2ccc(OCC(F)F)cc2)n(Cc2ccc(Cl)cc2)c1=O [Compound I-0846] — 18-fold higher, 0.035 µM
- CCCn1c(=O)[nH]/c(=N\c2ccc(Oc3ccc(C#N)nc3)cc2)n(Cc2ccc(Cl)cc2)c1=O [Compound I-2230] — the same, 0.002 µM
- Cc1cccc(Oc2ccc(/N=c3\[nH]c(=O)n(CC(CO)CO)c(=O)n3Cc3ccc(Cl)cc3)cc2)n1 [Compound I-2610] — 6-fold higher, 0.012 µM
- CCn1c(=O)[nH]/c(=N\c2ccc(Oc3cc(C(=O)O)ccn3)cc2)n(Cc2ccc(Cl)cc2)c1=O [Compound I-2250] — 4-fold higher, 0.008 µM
- CCn1c(=O)[nH]/c(=N\c2ccc(Oc3nc(C(N)=O)cs3)cc2)n(Cc2ccc(Cl)cc2)c1=O [Compound I-2608] — 3-fold higher, 0.006 µM
- CCn1c(=O)[nH]/c(=N\c2ccc(Oc3cccc(C(=O)O)n3)cc2)n(Cc2ncc(Cl)cn2)c1=O [Compound I-2553] — 110-fold higher, 0.216 µM
